Tested on: Human immunodeficiency virus 1
Experiment: Antiviral activity against HIV1 JRFL infected in human HeLa cells expressing CD4 and CCR5 assessed as inhibition of single-cycle viral replication by luciferase reporter gene assay
Assay type: functional, organism-based
Settings: Human immunodeficiency virus 1, JRFL

Compound | EC50 [µM]
O=C(NCCc1cc2ccccc2[nH]1)c1ccc(F)c2c(C(=O)C(=O)N3CCN(C(=O)c4ccccc4)CC3)c[nH]c12 | 0.00108
CS(=O)(=O)NC(=O)c1ccc(F)c2c(C(=O)C(=O)N3CCN(C(=O)c4ccccc4)CC3)c[nH]c12 | 0.00264
COc1ccc(C(N)=O)c2[nH]cc(C(=O)C(=O)N3CCN(C(=O)c4ccccc4)CC3)c12 | 0.00076
CNC(=O)c1ccc(F)c2c(C(=O)C(=O)N3CCN(C(=O)c4ccccc4)C[C@H]3C)c[nH]c12 | 0.00075
NC(=O)c1ccc(F)c2c(C(=O)C(=O)N3CCN(C(=O)c4ccccn4)CC3)c[nH]c12 | 0.00759
C[C@@H]1CN(C(=O)c2ccccn2)CCN1C(=O)C(=O)c1c[nH]c2c(C(N)=O)ccc(F)c12 | 0.00142
O=C(Nc1ccncc1)c1ccc(F)c2c(C(=O)C(=O)N3CCN(C(=O)c4ccccc4)CC3)c[nH]c12 | 0.00337
O=C(Nc1cccnc1)c1ccc(F)c2c(C(=O)C(=O)N3CCN(C(=O)c4ccccc4)CC3)c[nH]c12 | 0.00909
CN(C)C(=O)c1ccc(F)c2c(C(=O)C(=O)N3CCN(C(=O)c4ccccc4)CC3)c[nH]c12 | 0.407
CONC(=O)c1ccc(F)c2c(C(=O)C(=O)N3CCN(C(=O)c4ccccc4)CC3)c[nH]c12 | 0.00383
NNC(=O)c1ccc(F)c2c(C(=O)C(=O)N3CCN(C(=O)c4ccccc4)CC3)c[nH]c12 | 0.00269
COCCNC(=O)c1ccc(F)c2c(C(=O)C(=O)N3CCN(C(=O)c4ccccc4)CC3)c[nH]c12 | 0.0188
NCCNC(=O)c1ccc(F)c2c(C(=O)C(=O)N3CCN(C(=O)c4ccccc4)CC3)c[nH]c12 | 0.0128
CN(C)CCNC(=O)c1ccc(F)c2c(C(=O)C(=O)N3CCN(C(=O)c4ccccc4)CC3)c[nH]c12 | 0.316
O=C(NCCN1CCOCC1)c1ccc(F)c2c(C(=O)C(=O)N3CCN(C(=O)c4ccccc4)CC3)c[nH]c12 | 0.00795
CC(=O)N1CC(NC(=O)c2ccc(F)c3c(C(=O)C(=O)N4CCN(C(=O)c5ccccc5)CC4)c[nH]c23)C1 | 0.0112
O=C(NCc1ccccc1)c1ccc(F)c2c(C(=O)C(=O)N3CCN(C(=O)c4ccccc4)CC3)c[nH]c12 | 0.109
O=C(NCc1nc2ccccc2[nH]1)c1ccc(F)c2c(C(=O)C(=O)N3CCN(C(=O)c4ccccc4)CC3)c[nH]c12 | 0.00673
COc1ncc(OC)c2c(C(=O)C(=O)N3CCN(C(=O)c4ccccc4)CC3)c[nH]c12 | 0.00075

Tested on: not listed separately
Experiment: Cytotoxicity against human HeLa cells expressing CD4 assessed as cell viability after 6 days by XTT assay
Assay type: cell-based
Settings: not given

Compound | CC50 at 144 h [µM]
O=C(NCCc1cc2ccccc2[nH]1)c1ccc(F)c2c(C(=O)C(=O)N3CCN(C(=O)c4ccccc4)CC3)c[nH]c12 | > 300
CS(=O)(=O)NC(=O)c1ccc(F)c2c(C(=O)C(=O)N3CCN(C(=O)c4ccccc4)CC3)c[nH]c12 | > 300
COc1ccc(C(N)=O)c2[nH]cc(C(=O)C(=O)N3CCN(C(=O)c4ccccc4)CC3)c12 | 244
CNC(=O)c1ccc(F)c2c(C(=O)C(=O)N3CCN(C(=O)c4ccccc4)C[C@H]3C)c[nH]c12 | > 300
NC(=O)c1ccc(F)c2c(C(=O)C(=O)N3CCN(C(=O)c4ccccn4)CC3)c[nH]c12 | > 300
C[C@@H]1CN(C(=O)c2ccccn2)CCN1C(=O)C(=O)c1c[nH]c2c(C(N)=O)ccc(F)c12 | > 300
O=C(Nc1ccncc1)c1ccc(F)c2c(C(=O)C(=O)N3CCN(C(=O)c4ccccc4)CC3)c[nH]c12 | > 300
O=C(Nc1cccnc1)c1ccc(F)c2c(C(=O)C(=O)N3CCN(C(=O)c4ccccc4)CC3)c[nH]c12 | 132
CN(C)C(=O)c1ccc(F)c2c(C(=O)C(=O)N3CCN(C(=O)c4ccccc4)CC3)c[nH]c12 | > 300
CONC(=O)c1ccc(F)c2c(C(=O)C(=O)N3CCN(C(=O)c4ccccc4)CC3)c[nH]c12 | > 300
NNC(=O)c1ccc(F)c2c(C(=O)C(=O)N3CCN(C(=O)c4ccccc4)CC3)c[nH]c12 | > 300
COCCNC(=O)c1ccc(F)c2c(C(=O)C(=O)N3CCN(C(=O)c4ccccc4)CC3)c[nH]c12 | 298
NCCNC(=O)c1ccc(F)c2c(C(=O)C(=O)N3CCN(C(=O)c4ccccc4)CC3)c[nH]c12 | 135
CN(C)CCNC(=O)c1ccc(F)c2c(C(=O)C(=O)N3CCN(C(=O)c4ccccc4)CC3)c[nH]c12 | > 300
O=C(NCCN1CCOCC1)c1ccc(F)c2c(C(=O)C(=O)N3CCN(C(=O)c4ccccc4)CC3)c[nH]c12 | > 300
CC(=O)N1CC(NC(=O)c2ccc(F)c3c(C(=O)C(=O)N4CCN(C(=O)c5ccccc5)CC4)c[nH]c23)C1 | > 300
O=C(NCc1ccccc1)c1ccc(F)c2c(C(=O)C(=O)N3CCN(C(=O)c4ccccc4)CC3)c[nH]c12 | > 300
O=C(NCc1nc2ccccc2[nH]1)c1ccc(F)c2c(C(=O)C(=O)N3CCN(C(=O)c4ccccc4)CC3)c[nH]c12 | > 300
COc1ncc(OC)c2c(C(=O)C(=O)N3CCN(C(=O)c4ccccc4)CC3)c[nH]c12 | > 300
